The source of these data is patent publication US9023805B2, “Increasing cancer patient survival time by administration of dithio-containing compounds” (BioNumerik Pharmaceuticals, Inc., priority 2010, dated 2015).

Entries after “also recorded” stand apart in the source; their conditions may differ.

Data set [1] relates to coupled thioredoxin (TX)/thioredoxin reductase (TXR) system. As to the kind of experiment: NADPH oxidation, thioredoxin reductase + thioredoxin. It is filed as biochemical, bovine. The following applies: for NADPH Oxidation, Thioredoxin Reductase + Thioredoxin: Disulfide 0.5 mM, minimum of triplicate assays. The protocol:
(§1) The activity of TXR and TX was determined by following NADPH oxidation at 340 nm according to the previously reported method. See, Luthman, M., and Holmgren, A. Rat liver thioredoxin and thioredoxin reductase: purification and characterization. Biochemistry 21:6628-6633 (1982). A typical assay mixture contained TR buffer (50 mM potassium phosphate, pH 7.0, 1 mM EDTA), […] NADPH, 1.6 μg bovine TX, and one or more of the following: 4.8 μM TXR, 86 μM insulin, and one of the disulfides described herein. All disulfides were added to reactions as 10× solutions in TR buffer. The total volume of each reaction was 0.1 mL. Reactions were initiated by the addition of TX and were incubated at 25° C. for 40 min. The activity was calculated using a 4 min. linear portion of each reaction. Enzyme assays were carried out using either a Molecular Devices SpectraMaxPlus UV plate reader or a Varian Cary 100 UV-visible Spectrophotometer.
Data was then collected and plotted in Microsoft Excel. Error calculations, and graphical representations were performed in Microsoft Excel and Kaleidograph (ver. 3.5). Nonlinear data was graphically rendered using Kaleidograph. ANOVA and other statistical analyses were performed using SAS (ver. 8.2). Unless otherwise noted, significance level was set at 0.05, and error bars represent actual experimental standard deviation.

Data set [2] deals with T1, glutathione reductase (GR) (Homo sapiens, UniProt P00390).
T1 sequence (P00390 44-522): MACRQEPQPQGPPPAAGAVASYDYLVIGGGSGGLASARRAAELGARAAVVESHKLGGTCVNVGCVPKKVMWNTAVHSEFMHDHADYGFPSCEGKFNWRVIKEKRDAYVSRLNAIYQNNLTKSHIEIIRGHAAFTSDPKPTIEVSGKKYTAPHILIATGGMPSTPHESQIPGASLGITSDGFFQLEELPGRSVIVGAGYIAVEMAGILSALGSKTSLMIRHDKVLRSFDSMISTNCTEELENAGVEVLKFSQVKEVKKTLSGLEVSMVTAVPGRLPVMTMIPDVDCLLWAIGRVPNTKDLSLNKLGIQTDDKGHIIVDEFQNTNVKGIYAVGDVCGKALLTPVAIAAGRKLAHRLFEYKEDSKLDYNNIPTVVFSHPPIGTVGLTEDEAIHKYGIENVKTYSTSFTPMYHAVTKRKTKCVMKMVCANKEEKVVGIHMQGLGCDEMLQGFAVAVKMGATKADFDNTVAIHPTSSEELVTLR
The data set is described as follows: NADPH oxidation, GR. The format is biochemical. How it is done: (§2) The Formula (I) compound was utilized at a concentration of 0.5 mM.

In data set [3] the target is T2, Glutathione-S-Transferase (GST) (Homo sapiens, UniProt P09488).
T2 construct: purchased
T2 sequence (P09488 2-218 limits assumed): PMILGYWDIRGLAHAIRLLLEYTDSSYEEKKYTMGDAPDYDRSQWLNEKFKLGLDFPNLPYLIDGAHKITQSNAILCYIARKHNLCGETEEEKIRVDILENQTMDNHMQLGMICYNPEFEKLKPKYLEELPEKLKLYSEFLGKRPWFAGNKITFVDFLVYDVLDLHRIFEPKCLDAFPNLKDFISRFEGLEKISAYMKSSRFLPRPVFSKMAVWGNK
The data set is described as follows: GST assay: conjugation of reduced glutathione to 1-chloro-2,4-dinitrobenzene (CDNB). It is filed as biochemical. Conditions: read-out: Percent Inhibition. The protocol: An in vitro assay for GST has been developed and reported. See, Meyer, D. J. and Ketterer, B., Purification of soluble human glutathione S-transferases. Methods Enzymol. 252:53-65 (1995). This assay monitors the conjugation of reduced glutathione to 1-chloro-2,4-dinitrobenzene (CDNB), as illustrated in Reaction Scheme II, below.
Reduced thiol forms a conjugate with CDNB (extinction coefficient=9600 M^−1 cm^−1), which is detected at 340 nm. […] A typical 1 mL assay was set up by mixing 500 μl NaHPO4 buffer (200 mM, pH 6.5), 20 μL GSH (50 mM), 20 μL CDNB (50 mM), and 458 μL sterile water. Reactions were incubated at 20° C. in the cuvette holder of the spectrophotometer for approximately 5 min. prior to initiating the assay with the addition of enzyme (ml−1 isotype of GST; activity >100 U/mg). The enzyme stock purchased from the vendor was diluted 1:100 in 200 mM NaHPO4 buffer (pH 6.5), and 2 μL of the diluted enzyme was added to initiate the reaction. The final amount of enzyme added to the assay was typically 0.002 U. Assays were run at 20° C. in 1 mL quartz cuvettes (Hellma Scientific). Slopes were measured in the linear range of the assay (i.e., typically between 5 to 10 min.). […] Final reaction volumes were fixed at 1 mL by adjusting the amount of water added.
a. […]
Raw data was obtained on a Cary 100 spectrophotometer. […] No absorbance values were collected during the process of enzyme addition. […] It was during this time that reaction rates (i.e., slopes of change in absorbance with time) were measured using the Cary 100 software. […] Absorbance and time values during the end phase of the reaction were not used in slope calculations because the reaction was effectively over at this point as the reaction no longer followed the classical Michaelis-Menton model for enzyme kinetics. Completion of the reaction on the Cary software could be detected visually by overlaying a straight line beginning at the addition of enzyme and extending past the end phase of the assay curve. […]

In data set [4] the test system is coupled thioredoxin (TX)/thioredoxin reductase (TXR) system. The data set is described as follows: TX/TXR catalyzed reduction of the insulin A-B chain disulfide. It is filed as biochemical, bovine. How it is done:
as §1

The target in data set [5] is T3, coupled glutaredoxin (GRX)/glutathione (GSH)/glutathione reductase (GR) system (Homo sapiens, UniProt P35754).
T3 sequence (P35754 2-106 limits assumed): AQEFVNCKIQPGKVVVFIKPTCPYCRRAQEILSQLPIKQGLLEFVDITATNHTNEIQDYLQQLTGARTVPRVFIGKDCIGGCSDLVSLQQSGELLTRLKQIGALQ
The data set is described as follows: NADPH oxidation, GR + GRX + GSH. The format is biochemical. The following applies: in the presence of reduced glutathione and glutathione reductase. How it is done:
as §2

The test system of data set [6] is patients with advanced non-small cell lung carcinoma (NSCLC), including the adenocarcinoma sub-type. As to the kind of experiment: Japan Phase III Clinical Trial. It is filed as in vivo, human. The protocol:
(§3) Darbepoetin alfa (200 μg; subcutaneous administration) was administered on day one of the chemotherapy cycle and pegfilgrastim (6 mg subcutaneous administration) was administered on day two of the chemotherapy cycle if the patient's hemoglobin levels were ≦11 g/dL. The aforementioned chemotherapy cycle was repeated every two weeks, for up to a total of six cycles.
Patients admitted into the trial included those patients without previous treatment (excluding surgical treatment, administration of Picibanil into the serous membrane, irradiation of 30% or less hematopoietic bone, or oral chemotherapeutic agents within 3 months of entry in the trial).
The Japan Phase III Clinical Trial was conducted as a double-blind study because peripheral neuropathy is diagnosed based on subjective symptoms evaluated through clinical interviews, lab tests, and the like. Accordingly, evaluations by both physicians and patients are highly important. […] A placebo was used as control since there is no established therapy or drug for preventing peripheral neuropathy. Because the severity of peripheral neuropathy is evaluated based on patient's reports (i.e., subjective symptoms), the Peripheral Neuropathy Questionnaire (PNQ©) was used in primary evaluation. CIPN-20 and NCI-CTC were used in secondary evaluation. The incidence and severity of adverse reactions, time to their onset, etc. and the like, were compared between patients treated with Tavocept™ and those given a placebo using the aforementioned methods.

The subject of data set [7] is patients with advanced, Stage IIIB/IV, non-small cell lung carcinoma (NSCLC), including the adenocarcinoma sub-type. The data set is described as follows: U.S. Phase II NSCLC Clinical Trial. It is filed as in vivo, human. How it is done: as §3
Another data set relates to whole cells. As to the kind of experiment: Whole cell mediated disulfide reduction. Conditions: mesna in combination with cisplatin. The format is cell-based.
The mark [8] stands for this setting: Tavocept™ and chemotherapy vs chemotherapy and placebo.
The mark [9] stands for this setting: Grade 3 and Grade 4 treatment-related adverse events, Tavocept™ arm versus non-Tavocept™ arm, FIG. 15.

For the molecule `NC(CSSCCS(=O)(=O)O)C(=O)O` (centres unmarked) [BNP7766], in data set [1], the “substrate (alternative substrate inhibitor) for thioredoxin / the coupled thioredoxin/thioredoxin reductase/NADPH system” value is “substrates” and the “NADPH Oxidation, Thioredoxin Reductase + Thioredoxin” value was determined as 14.4 ± 0.2 nmol/min/mL.

For `NC(CCSSCCS(=O)(=O)O)C(=O)O` (centres unmarked) [BNP7768], in data set [1], the “substrate (alternative substrate inhibitor) for thioredoxin / the coupled thioredoxin/thioredoxin reductase/NADPH system” value is reported as “substrates” and the “NADPH Oxidation, Thioredoxin Reductase + Thioredoxin” value amounted to 8.6 ± 0.06 nmol/min/mL.

As to `N[C@@H](CCC(=O)N[C@@H](CSSCCS(=O)(=O)O)C(=O)NCC(=O)O)C(=O)O` [BNP7772], in data set [1], the “substrate (alternative substrate inhibitor) for thioredoxin / the coupled thioredoxin/thioredoxin reductase/NADPH system” value is recorded as “substrates” and the “NADPH Oxidation, Thioredoxin Reductase + Thioredoxin” value turned out to be 14.1 ± 0.1 nmol/min/mL. For the same molecule, in data set [2], the “substrate for glutathione reductase” value was “alternative substrate inhibitor”.

On to `NC(CCC(=O)NC(CSSCCS(=O)(=O)O)C(=O)O)C(=O)O` (centres unmarked) [BNP7774], for which, in data set [1], the “substrate (alternative substrate inhibitor) for thioredoxin / the coupled thioredoxin/thioredoxin reductase/NADPH system” value is reported as “substrates” and the “NADPH Oxidation, Thioredoxin Reductase + Thioredoxin” value is 9.6 ± 0.2 nmol/min/mL.

For the molecule `N[C@@H](CSSCCS(=O)(=O)O)C(=O)NCC(=O)O` [BNP7776], in data set [1], the “substrate (alternative substrate inhibitor) for thioredoxin / the coupled thioredoxin/thioredoxin reductase/NADPH system” value was “substrates” and the “NADPH Oxidation, Thioredoxin Reductase + Thioredoxin” value amounted to 15.8 ± 0.3 nmol/min/mL.

For `O=S(=O)([O-])CCSSCCS(=O)(=O)[O-].[Na+].[Na+]` [Tavocept™, disodium 2,2′-dithio-bis-ethane sulfonate], in data set [3], the inhibition (usually the percentage by which the read-out fell short of the control) at 1100 µM amounted to 5.6%, the inhibition at 3300 µM was 39% and the inhibition at 10000 µM was found to be 66.4%. In data set [1], the “oxidation of reduced thioredoxin to oxidized thioredoxin” value is recorded as “drives the oxidation”; the “substrate (alternative substrate inhibitor) for thioredoxin / the coupled thioredoxin/thioredoxin reductase/NADPH system” value is recorded as “substrate; also recorded: most likely a substrate for TX”; the “NADPH Oxidation, Thioredoxin Reductase + Thioredoxin” value stood at 13.1 ± 0.2 nmol/min/mL. Besides, the “NADPH oxidation by TXR in the presence of TX” value in data set [1] (FIG. 17) is “concentration-dependent increase”. For the same molecule, the Km in data set [1] (read-out: Km as substrate for the coupled thioredoxin/thioredoxin reductase system) came out at 72 µM. Moreover, the “inhibition of TX/TXR catalyzed reduction of the insulin A-B chain disulfide bond” value in data set [4] is “inhibits”. Besides, the Km in data set [4] (read-out: Km for inhibition of thioredoxin/thioredoxin reductase catalyzed reduction of the insulin A-B chain disulfide) was 3600 µM. The “substrate for glutathione reductase” value in data set [2] is “not a substrate”. Besides, the “substrate-like / alternative substrate inhibitor activity with glutaredoxin (coupled GRX/GSH/GR system)” value in data set [5] is listed as “substrate-like activity”. Further, in data set [6] (setting [8]), the chemotherapy-induced kidney damage entry is listed as “medically-important reductions” and the chemotherapy-induced vomiting/emesis result was “medically-important reductions”. Moreover, the “patients with Grade 3 (severe) decrease in red blood cell” value in data set [6] (Tavocept™ arm, FIG. 7) came out at 1 patients. In addition, the “Response Rate, as measured by physicians” value in data set [6] (Tavocept™ arm, FIG. 8 "Doctor") turned out to be 41.9%. In addition, the “reduction in severe (Grade D or E) peripheral neuropathy (PNQ)” value in data set [6] (paclitaxel/Tavocept™/cisplatin vs paclitaxel/saline placebo/cisplatin, FIG. 5, GEE P-Value 0.1565 (FIG. 6)) is recorded as approximately 50%. In addition, the anorexia entry in data set [6] (vs placebo regimen, p=0.0029) was “reductions”. In data set [6] (vs placebo regimen, p=0.0163), the fatigue result was “reductions”. Also, the nausea/vomiting entry in data set [6] (vs placebo regimen, p=0.0240) is “reductions”. The diarrhea entry in data set [6] (vs placebo regimen, p=0.0859) is listed as “reductions”. Moreover, the insomnia entry in data set [6] (vs placebo regimen, p=0.1108) is given as “reductions”. Besides, the constipation entry in data set [6] (vs placebo regimen, p=0.1114) is “reductions”. Also, the “hazard ratio, adenocarcinoma” value in data set [7] (FIG. 14) is 0.601. In addition, in data set [7] (setting [9]), the reduction in dehydration is 50%, the reduction in hypomagnesaemia is on record as 100%, the reduction in nausea is recorded as 38.5% and the reduction in vomiting is given as 71.5%. Moreover, the hazard ratio in data set [7] (NSCLC, FIG. 12) came out at 0.750. In data set [7] (Tavocept™ arm versus non-Tavocept™ arm, FIG. 14), the “increase in patient survival, adenocarcinoma” value stood at 6.54 month. The “increase in patient survival, adenocarcinoma” value in data set [7] (Tavocept™ arm versus non-Tavocept™ arm, FIG. 14, listed as Tavocept) is recorded as approximately 6.5 month.

Consider `O=S(=O)([O-])CCS.[Na+]` [mesna, 2-mercapto ethane sulfonate sodium], for which, in the data set on whole cells, the “reduction of hydroxyethyldisulfide (GRX substrate) by whole cells” value is listed as “enhanced” and the “reduction of α-lipoic acid (TX/TXR substrate) by whole cells” value was “enhanced”.
